Test results taken from paper PMC5702897 (CPT: Pharmacometrics & Systems Pharmacology, 2017).
Like-named read-outs stand apart in the source and are kept apart here.

Key:
[1] = 15 to 450 mg given in fasted state; cited from earlier work
[2] = 40 mg single dose, healthy volunteers, cited from earlier work
[3] = weakly basic compound; cited from earlier work

Absorption rate constant (Ka), typical value (PPI=0, Fasted): 2.63 h⁻¹
Absorption rate constant (Ka), typical value (PPI=0, Fed): 0.297 h⁻¹
Absorption rate constant (Ka), typical value (PPI=1, Fasted): 1.361 h⁻¹
Absorption rate constant (Ka), typical value (PPI=1, Fed): 0.154 h⁻¹
Ka as percent of the fasted state value (both PPI and food present): about 6%
Absorption lag time (Tlag), typical value (healthy volunteers, 40 mg): 0.47 H
Central volume (Vc/F), typical value (healthy volunteers, 40 mg): 304.9 L
Peripheral volume (Vp/F), typical value (healthy volunteers, 40 mg): 175.9 L
BSV of absorption lag time (Tlag) (human, in vivo): 3.00%
BSV of central volume (Vc/F) (human, in vivo): 37.7%
BSV of absorption rate constant (Ka) (one value for all four states): 51.9%
decrease in Ka with PPI (regardless of food): ~50%
Structure (SMILES): CS(=O)(=O)N1CCN(Cc2cc3nc(-c4cccc5[nH]ncc45)nc(N4CCOCC4)c3s2)CC1 [pictilisib, Pictilisib]
dose proportionality of PK [1]: dose‐proportionality
median AUCinf ([2]; fasted with PPI (rabeprazole)): 906 ng·h/mL
median AUCinf ([2]; fasted): 1,760 ng/mL*h
median AUCinf ([2]; fed (high-fat food)): 2,070 ng/mL*h
median AUCinf ([2]; fed with PPI (rabeprazole)): 1,180 ng/mL*h
pKa (first value) [3]: 4.2
